Assay results reported in PubChem BioAssay AID1645871.
Square brackets hold non-standard residues; d marks the D form. Peptide text beside a SMILES is read from it. ξ: configuration not given here. ξLac(3-iPr) = CC(C)CC(O)C(=O)O; NMeV = CN[CH](C(=O)O)C(C)C; NMeA = CN[CH](C)C(=O)O; βAla = NCCC(=O)O

Settings: pampa; pH 5.0; 30.0 min; 50.0 µM

Row | SMILES | Papp [×10⁻⁶ cm/s]
1 | COc1ccccc1N1CCN(CCN(C(=O)c2ccc(I)cc2)c2ccccn2)CC1 | 758
2 | Cc1ccc(C(=O)N2CCc3c(nc4cc(-c5ccccc5)[nH]n4c3=O)C2)cn1 | 1.2
3 | CCN1CCN(c2ncc3c(n2)CCN(Cc2cc(Br)cs2)C3)CC1 | 77.1
4 | CCOc1ccc(NC(=O)CC2C(=O)N(c3ccc(F)cc3)C(=O)N2CCc2sccc2C)cc1 (stereo not given) | 831
5 | Nc1c(-c2ccccc2)cc[nH]c1=O | 76.8
6 | O=C(C1CC(=O)N(c2n[nH]c3ccccc23)C1)N1CCC(c2noc3cc(F)ccc23)CC1 (stereo not given) | 635
7 | O=c1[nH]c(C2CCCN(CC3CCCCC3)C2)nn1-c1ccc(Cl)cc1 (stereo not given) | > 1000
8 | Cc1ccc(CNCc2cn[nH]c2-c2ccc(C)cc2)cc1 | 410
9 | O=C(O)c1cnc(-c2ccc(F)cc2)nc1-c1ccncc1 | 38.3
10 | Oc1ccc(-c2nc(C3CC3)nc3c2CCN(Cc2ccc(F)cc2)CC3)cc1 | 421
11 | S=c1[nH]c2ccccc2n1CCc1ccccc1 | 903
12 | COc1c(O)cc2c(c1OC)-c1ccc(SC)c(=O)cc1C(NC(C)=O)CC2 (stereo not given) | 20.7
13 | CCCCN(C)C(=O)c1c(C)sc2ccn(CCC)c(=O)c12 | 113
14 | CCOc1cc(=O)n2c(c1C(=O)Nc1cc(OC)c(Cl)cc1OC)CCCC2 | 68.7
15 | N#Cc1ccc(-c2ccc(CNc3ccc(C4CCNCC4)cc3)o2)cc1 | 236
16 | COc1ccccc1NC(=O)C1=C(C)Nc2c(C(=O)Nc3cccc(C)c3)cnn2C1c1ccccc1Cl (stereo not given) | 156
17 | Cc1c(C(=O)NN2CCCCC2)nn(-c2ccc(Cl)cc2Cl)c1-c1ccc(Cl)cc1 | > 1000
18 | Cc1ccc(CN2C(=O)C(O)(CC(=O)c3ccc(C)cc3)c3ccccc32)cc1 (stereo not given) | 626
19 | CCc1ccccc1-n1c(SCC(=O)Nc2ccc(C)cc2)nc2n[nH]c(C)c2c1=N | > 1000
20 | CCc1ccc(C2N=C(N)Nc3nc4ccccc4n32)cc1 (stereo not given) | 1.54
21 | COc1cc([C@@H]2c3cc4c(cc3[C@H](O)[C@H]3COC(=O)[C@H]23)OCO4)cc(OC)c1OC | 262
22 | COc1ccc(OC)c(CN2CCNc3cc(Nc4ccccc4)ncc3C2)c1 | 2.33
23 | COc1ccc(-c2ccc3ncc4c(c3c2)n(-c2ccc(N3CCNCC3)c(C(F)(F)F)c2)c(=O)n4C)cn1 | 153
24 | COc1cccc(C(=O)Nc2nnc(S(=O)(=O)N3CCOCC3)s2)c1 | 787
25 | CCOc1ccc(N2CC(c3nc(-c4cc(OC)c(OC)c(OC)c4)no3)CC2=O)cc1 (stereo not given) | > 1000

Row | SMILES | Papp [×10⁻⁶ cm/s]
26 | CN1CCN(Cc2ccc(-c3ccc(C(C)(C)C#N)cc3)nc2)CC1 | 47.3
27 | C[C@H]1CN(C(=O)Nc2ccc(F)cc2)C[C@@H]1c1nc(-c2ccccc2)no1 | 809
28 | COc1cc(C2CC(=O)Nc3cc4c(cc32)OCCO4)cc(Br)c1OC (stereo not given) | > 1000
29 | COC[C@@H]1CN(C(=O)c2nn(C)c3ccccc23)C[C@H]1c1nc(C)no1 | 65.3
30 | C=Cc1ccc(Cn2c(C(=O)O)c(CNC3CCCCC3)c3ccc(OC)cc32)cc1 | 702
31 | COc1ccccc1-c1[nH]nc2ncc(-c3ccc(C)cc3)nc12 | 1.92
32 | O=C(c1ccc2ncccc2c1)N1CCc2c(nc3cc[nH]n3c2=O)C1 | 5.6
33 | O=C(c1cc2ccccc2[nH]1)N1CCc2c(n(Cc3cccnc3)n(CCc3ccccc3)c2=O)C1 | 229
34 | COC[C@@H]1CN(C(=O)c2n[nH]c3ccccc23)C[C@H]1c1nc(C)no1 | 37.8
35 | COc1ccc(-c2cc(C)nc3c(-c4ccc(OC)c(OC)c4)c(C)nn23)cc1 | > 1000
36 | Fc1ccc(CN2CCNc3cc(Nc4ccccc4)ncc3C2)cc1F | 340
37 | CCN(c1ccccc1)S(=O)(=O)c1c(C)nc2scc(C)n2c1=O | 479
38 | Nc1c(S(=O)(=O)c2cccs2)c2nc3ccccc3nc2n1Cc1ccccc1 | > 1000
39 | c1ccc(Nc2cc3c(cn2)CN(Cc2cccs2)CCN3)cc1 | 106
40 | Cc1nn2c(c1-c1ccccc1-c1ccccc1)N(Cc1ccc(C(=O)O)s1)CCC2 | 523
41 | Fc1ccc(CNc2cc3c(cn2)CN(Cc2ccncc2)CCN3)cc1 | 14.3
42 | CCc1ccc(C2C(C(=O)Nc3ccccc3OC)=C(C)Nc3c(C(=O)Nc4ccc(C)cc4)cnn32)cc1 (stereo not given) | 288
43 | COc1ccc(-c2ccc3ncc(Nc4cccnc4OC)n3n2)cn1 | 758
44 | NC(=O)N1CCCC(C(=O)N2CCCN(c3ccc(F)cc3)CC2)C1 (stereo not given) | 96.2
45 | CCc1nnc(NC(=O)c2nc(S(=O)(=O)Cc3ccc(C)cc3)ncc2Cl)s1 | 711
46 | CN(C)CC/C=C1\c2ccccc2Sc2ccc(Cl)cc21 | 531
47 | CCn1ncc(NC(=O)Cn2ncc3cc(-c4cccc(OC)c4)ccc32)n1 | 853
48 | Cc1ccc(NC(=O)C(Cc2ccccc2)NS(=O)(=O)c2cccs2)cc1Cl (stereo not given) | 570
49 | CS(=O)(=O)c1ccc(-c2cnc(NCc3ccco3)n3cnnc23)cc1 | 13.6
50 | Cc1ccc(S(=O)(=O)Nc2nc3ccc(C)cc3nc2Nc2ccc3c(c2)OCO3)cc1 | 334

Row | SMILES | Papp [×10⁻⁶ cm/s]
51 | O=C(O)c1ccc(Nc2nc(-c3cc4ccccc4oc3=O)cs2)cc1O | 74.2
52 | C[C@H]1CN(C(=O)Nc2ccc(F)cc2F)C[C@@H]1c1nc(-c2ccccc2)no1 | 917
53 | CCOC(=O)N1CCN(C(=O)Cn2sc3nc(C)cc(C)c3c2=O)CC1 | 19.1
54 | COc1ccc(C)cc1NC(=O)c1cnc(-c2ccc(F)cc2)nc1-c1ccncc1 | 926
55 | CCC(C)C1NC(=O)C2CCCN2C(=O)C(CC(C)C)OC(=O)CCNC(=O)C(C)N(C)C(=O)C(C(C)C)N(C)C1=O (stereo not given) (cyclo([ξLac(3-iPr)]PI[NMeV][NMeA][βAla]); configuration not given here) | 74
56 | Cn1nnnc1Sc1ncnc2scc(-c3ccccc3F)c12 | 451
57 | CCc1cccc(NC(=O)C(Cc2ccccc2)NS(=O)(=O)c2cccs2)c1 (stereo not given) | > 1000
58 | CCCCOc1ccc(C(=O)N2CCC(c3n[nH]c(=O)n3-c3ccc(C)cc3)CC2)cc1 | > 1000
59 | COc1ccc(-n2nc(C3CCCN([S+](=O)([O-])c4cccc(C(F)(F)F)c4)C3)[nH]c2=O)cc1 (stereo not given) | 564
60 | Cn1cc2c3c(cccc31)CN(C(=O)c1ccc(F)c(Cl)c1)CC2 | 824
61 | CC/C=C\C/C=C\C/C=C\C/C=C\C/C=C\C/C=C\CCC(=O)NCCO | 19.5
62 | COc1ccc(-n2nc(C)c([C@@H]3C=C[C@@H](NCc4ccc(F)cc4)C3)c2C)cc1 | 482
63 | COc1ccc(-n2nc(C3CCCN(C(=O)Nc4ccccc4)C3)[nH]c2=O)cc1 (stereo not given) | 315
64 | CNc1oc(-c2cccc(Cl)c2Cl)nc1C#N | 589
65 | Cc1ccccc1N(C)C1CN([S+](=O)([O-])c2cccc(C(F)(F)F)c2)C1 | 924
66 | CCOC(=O)c1ccc(N2C(=O)c3n[nH]c(-c4cccs4)c3C2c2ccc(OCC)cc2)cc1 (stereo not given) | 448
67 | CCc1[nH]c2ccc(CNC(=O)Cc3cnc4c(C)cccn34)cc2c1C | 32.2
68 | COc1ccc(-n2nc(C3CCN([S+](=O)([O-])c4c(C)noc4C)CC3)[nH]c2=O)cc1 | 308
69 | Cc1cnc(SCc2ccccn2)nc1C1CCCN(C(=O)c2scc3c2CCCC3)C1 (stereo not given) | > 1000
70 | Cc1noc(C)c1-c1cc(-c2ccc3c(c2)C(=O)NC3)cn2cncc12 | 64.5
71 | COc1ccc(-n2nc(C3CCN(C(=O)C4CC4)CC3)[nH]c2=O)cc1 | 130
72 | Cc1ccc(NC(=O)NCC2CCN(Cc3cccc(Cl)c3)CC2)cc1Cl | > 1000
73 | CN(Cc1ccc(/C=C/C(=O)NO)cc1)CC12CC3CC(CC(C3)C1)C2 | 108
74 | CCc1cccc(NC(=O)CSc2nc3ccccc3nc2N2CCCCC2)c1 | 351
75 | O=C(NCCCNc1nc(Nc2cccc(NC(=O)N3CCCC3)c2)ncc1I)c1cccs1 | 234
